Results on one substance are retold here after patent publication EP4623928A1, “GLP-1R ANTAGONISTS FOR THE TREATMENT OF CANCER” (Fiorina, Paolo, priority 2024, dated 2025).

One assay has as its system islet allografts. Description: Murine islet allotransplantation (BALB/c islets into STZ-treated C57BL/6 mice). It is filed as in vivo. The method, then:
Pancreatic islets from BALB/c mice were isolated by collagenase digestion and density gradient separation as previously described (33, 34). Subsequently, four to five hundred islets were inoculated under the renal capsule of each C57BL/6 recipient rendered diabetic with streptozotocin (STZ) (200 mg/kg, administered i.p. Sigma-Aldrich). Islet transplantation success was confirmed by glycaemia normalization. Rejection of islet allografts was defined as blood glucose levels >250 mg/dl for at least 2 consecutive days (35). Treatment modalities were the following: transplanted mice were intraperitoneally injected according to the following protocols: 1) Exendin-4 (Exe-4) (Amylin Pharmaceuticals, San Diego, CA -USA) 0.2pg twice/day for two weeks after transplant; 2) Exe-4 0.2pg twice/day from the day before until two weeks after transplant; 3) Exendin-4 2µg twice/day from the day before until two weeks after transplant; 4) Exendin-4 2µg twice/day + Exendin-9-39 (Exe-9) (Sigma-Aldrich) 2µg twice/day from the day before until two weeks after transplant; 5) Exendin-4 2µg twice/day from the day before until two weeks after transplant + Rapamycin 0.1mg/die for two weeks; 6) saline 0.5ml twice/day for two weeks. The follow-up of the transplanted mice was for 100 days.

For assay [1], the system named is MC38 colorectal cancer cells. Description: Colorectal tumour model (MC38 cells injected into the distal posterior rectum). The class given is in vivo, C57BL/6 mice. The method, then:
Female C57BL/6 mice were anesthetized with 100 mg/kg of ketamine and 50 mg/kg of xylazine. Next, by using a 29-gauge syringe, 2×10^5 MC38 cells were injected submucosally into the distal posterior rectum in a final volume of […], as described previously (36, 37). MC38-injected mice were randomly assigned into 2 groups: (i) Exe-9-treated group (n=8), where all mice received an intraperitoneal injection of 2 µg of Exendin-9-39 (Exe-9) starting by Day1 for a total of 14 days; (ii) untreated-group (n=6), where all mice received an IP injection of PBS starting by day 1 and for a total of 14 days. Tumour growth was visually monitored daily. After animals' sacrifice, tumours were measured by a digital calliper measuring tumour length, width, and height and were weighted using a digital scale. Procedures involving mice wereb conformed to institutional guidelines in agreement with national and international law and were approved by the ethics committee by the Ministry of Health.

In another assay the test system is CD4^+ and CD8^+ T cells. Description: Cell death and proliferation of CD4+ and CD8+ T cells in splenocytes activated with anti-CD3/anti-CD28 (FACS). The class given is cell-based, C57BL/6 mice.
For assay [2], the system named is mitogen-stimulated murine splenocytes. Description: IFN-γ ELISpot assay on anti-CD3/anti-CD28 stimulated splenocytes. The conditions noted are these: Exe-9 added to Exe-4, 0.1, 1 or 10 nM, 24 hours. It is filed as cell-based, C57BL/6 mice. The method, then: An ELISPOT assay was used to measure the number of IFN-γ-producing cells according to the manufacturer's protocol (BD Biosciences) as previously performed by our group (39). To test the role of GLP-1R-driven immunity on the anti-CD3/28 non-autoimmune specific response, 1×10^6 splenocytes isolated from C57BL/6 mice were cultured in a microwell plate (BD Biosciences) coated with IFN-y capture antibody (Ab) in the presence of the following soluble anti-CD3 and anti-CD28 at 0,5ug/ml for 24 hours. Exe-4 and/or Exe-4+Exe-9-39 at concentrations of 0.1, 1 or 10 nM were added to the culture. After 24 hours, bound secondary Ab was visualized using HRP-streptavidin and the AEC substrate kit (BD Biosciences). Spots were counted using an Immunospot analyzer (Cellular Technology Ltd., Cleveland, OH) and expressed as the number of cytokine-producing spots per 1×10^6 cells. After 24hours, ELISpot plates were developed and acquired on an ELISpot reader, as previously described.

The subject of another assay is Cardiac allografts. Description: Murine cardiac allotransplantation (BALB/c hearts into C57BL/6 mice). It is filed as in vivo. The method, then: Cardiac allografts from BALB/c mice were transplanted intra-abdominally in C57BL/6 mice using microsurgical techniques as described (31). Rejection was determined as complete cessation of cardiac contractility and was confirmed by direct visualization. Transplanted mice were intraperitoneally injected according to the following protocols: 1) Exendin-4 (Exe-4) (Amylin Pharmaceuticals, San Diego, CA - USA) 0.2pg twice/day for two weeks after transplant; 2) Exe-4 0.2pg twice/day from the day before until two weeks after transplant; 3) Exe-4 2µg twice/day from the day before until two weeks after transplant; 4) Exe-4 2µg twice/day + Exendin-9-39 (Exe-9) (Sigma-Aldrich) 2µg twice/day from the day before until two weeks after transplant; 5) Exe-4 2µg twice/day from the day before until two weeks after transplant + Rapamycin 0.1mg/die for two weeks; 6) saline 0.5ml twice/day for two weeks.

[3] abbreviates: co-administration Exe-4 2µg twice/day + Exe-9 2µg twice/day.
Where [4] appears, read: splenic, Exe-9 co-administration with Exe-4.
[5] abbreviates: 2 µg of Exe-9 once a day for 14 days, vs untreated.
The mark [6] stands for this setting: Exe-9-treated group vs untreated.

For Exendin-9-39 [Exe-9], in the assay with islet allografts (setting [3]), the “effect of Exe-9 on the beneficial effects of Exe-4 (islet allograft survival)” value is “partly abolished”. Moreover, the “graft infiltration (Hematoxylin and eosin staining)” value in the assay on islet allografts (islet allograft at day 14, co-administration of Exe-9 with Exe-4) is “restored the graft infiltration”. In the assay with islet allografts (setting [4]), the “CD8^+ effector cell number” value was “restored CD8^+ effector cell number” and the Tregs result is listed as “did not affect Tregs”. In addition, in assay [1] (2 µg of Exe-9 once a day for 14 days, intraperitoneal, vs untreated (PBS)), the tumour size entry is “significantly reduced”. For the same substance, in assay [1] (setting [5]), the colon length result is listed as “no differences”, the “mesenteric lymph nodes volume” value was “significantly reduced” and the spleen weight result was “no differences”. Moreover, in assay [1] (setting [6]), the “CD3^+ and CD8^+ effector memory T cells within the spleen and mesenteric lymph nodes” value is on record as “no major differences”; the “tumor infiltration of CD3^+ T cells (FACS)” value was “increased infiltration”; the “tumor infiltration of activated effector memory CD8^+ T cells (FACS)” value was “increased infiltration”. Also, in assay [1] (Exe-9-treated group vs untreated, immunohistochemistry), the “intratumoral infiltration of CD3^+ T cells (pathological examination)” value was “significant intratumoral infiltration”. The “effect of Exe-9 on Exe-4-induced cell death” value with CD4^+ and CD8^+ T cells (Exe-9 added to Exe-4, anti-CD3/anti-CD28 activated splenocytes) was “reduced the effect”. Besides, the “percentages of proliferating (or cell trace positive) CD4^+ and CD8^+ T cells” value with CD4^+ and CD8^+ T cells (addition of antagonist Exe-9 to Exe-4, anti-CD3/CD28 Abs (Fig. 13D-E)) is reported as “No differences”. Also, the “effect of Exe-9 on the Exe-4-induced reduction of IFN-y producing cells” value in assay [2] was “significantly hampered the overseen immunoregulatory effect of Exe-4”. Also, in the assay with Cardiac allografts (setting [3]), the “effect of Exe-9 on the beneficial effects of Exe-4 (heart allograft survival)” value is on record as “partly abolished”. Also, the “effect of Exe-9 on the Exe-4-induced decrease of graft infiltration” value with Cardiac allografts (day-7 heart allograft, Exe-9 co-administration with Exe-4) is listed as “abolished”. In the assay with Cardiac allografts (setting [4]), the “effect of Exe-9 on the Exe-4-induced decrease of CD4^+ and CD8^+ effector T cells” value was “reverted”.
